Measurements taken from patent US20140113091A1, “MEDICAL SUPPLY” (Toray Industries, Inc., priority 2011, published 2014).

Tested on: blood collected from volunteers
Assay: Measurement of whole blood clotting time (Sonoclot, ACT ONSET value)
Design: species or system human
Description: To a cuvette (NON-ACTIVATED CLOTTING TEST KIT), 18 μL of physiological saline was placed, and 14.8 μL of calcicol was added thereto, followed by further adding 342 μL of blood supplemented with citric acid. Thereafter, the measurement using Sonoclot blood coagulation/platelet function analyzer (IMI Co., Ltd.) was carried out to define the obtained ACT ONSET value as whole blood clotting time.

## CC1CNc2c(cccc2S(=O)(=O)N[C@@H](CCCNC(=N)N)C(=O)N2CC[C@@H](C)C[C@@H]2C(=O)O)C1 (mixture of isomers) [argatroban]
2 μM argatroban solution
  whole blood clotting time: 531 s
10 μM argatroban solution
  whole blood clotting time: 746 s
20 μM argatroban solution
  whole blood clotting time: 849 s
